These molecules were tested on AMP-activated protein kinase (AMPK) (assay: p-AMPK expression level in L6 cell line by Western blot). Settings: L6 cells, 2 hours compound treatment.
Assay type: cell-based
Experimental: Evaluation of p-AMPK and p-ACC expression level in L6 cell line by Western-Blot
This method evaluates the changes of AMP-activated protein kinase (AMPK) and ACC (acetyl-CoA carboxylase) activity by small molecular modulators through detecting the level of p-AMPK and p-ACC proteins in L6 cells using Western blot.
L6 cells are maintained in DMEM medium supplemented with 10% FBS in 10-cm dishes. Prior to compounds treatment, L6 cells are seeded in 12-well-plates at concentration of 3×10^4 cells per well. After 24 hours of incubation in 12-well plates, L6 cells are differentiated by replacing the 10% FBS-DMEM medium with 2% FBS-DMEM. Differentiation usually takes 5 days, during which the culture medium is changed every 2 days.
The compound concentrations typically range from 32 μM to 0.5 μM with 2-fold dilution in 2 ml DMEM and 7 doses. The final DMSO concentration is 0.4%. Berberine is used as a positive control at concentration of 16 μM. Before compound treatment, starve L6 cells for 2 hours by replacing the medium with DMEM, and then gently aspirate the media from each well. Add the compounds into the plates and incubate at 37 degree 5% CO2 for 2 hours.
Prepare lysis buffer (RIPA buffer with protease-inhibitors and phosphorate-inhibitors) and place it on ice. After two hour's compound treatment, aspirate the medium from 12-well plates, add 70 ul lysis buffer to each well and keep the plates on ice for 5 min. Then scrape the cell lysate off the plates and transfer it to 1.5 ml eppendorf tubes. Keep the tube on ice for more 10 min, centrifugate the lysate at 13000 rpm, 4 degrees for 15 min and transfer the supernatant to clean tubes.
Determine protein concentration for each sample using Quickstart Bradford protein quantitation kit. Mix 20 ug protein sample with 4 times loading buffer, heat them at 100° C. for 5 min, store the sample in −80° C. or perform Western blot assay directly. For Western blot assay, load 20 ug samples and 10 ul Pre-stained Protein Maker into 4-12% SDS-PAGE gradient gel. Run the samples at 100 V in the stacking gel and at 120 V in resolving gel until the Bromophenol dye reaches the bottom. Transfer the electrophoresed proteins to a PVDF membrane using Bio-Rad's Transblot for 120 min at 300 mA. Following the completion of transfer, the membrane is blocked with 5% non-fat milk for 2 hours at room temperature before incubated with primary antibody (p-AMPK and p-ACC) at 4° C. overnight. On the next day wash the membrane twice with TBST, add secondary antibody and incubate for 1 hour at room temperature. Wash the membrane twice with TBST. Develop p-AMPK and p-ACC protein expression level on the film in dark room with Amersham ECL plus kit. The bands of each sample are quantitated by Bio-Rad system, The AC1.3 value is analyzed using Prism 5.0.

Question: `CC1(C)CC(c2ccc(F)c(Cl)c2)Nc2ccc(C(=O)NS(C)(=O)=O)nc21` (centres unmarked) [Example 81, N-[6-(3-chloro-4-fluoro-phenyl)-8,8-dimethyl-5,6,7,8-tetrahydro-[1,5]naphthyridine-2-carbonyl]-methanesulfonamide] was tested. Which “Activity AC1.3 (AMPKp)” value did it give?
Answer: Its value is 0.43 µM.

Question: With `CC1(C)CC(c2cccc(C#N)c2)Nc2ccc(C(=O)NS(C)(=O)=O)cc21` (centres unmarked) [Example 33, N-[2-(3-cyano-phenyl)-4,4-dimethyl-1,2,3,4-tetrahydro-quinoline-6-carbonyl]-methanesulfonamide] as the molecule, how does the “Activity AC1.3 (AMPKp)” value read?
Answer: The value was 0.08 µM.

Question: Which “Activity AC1.3 (AMPKp)” value does the source give for `CN(C)c1cccc(C2CC(C)(C)c3cc(Cl)cc(C(=O)NS(=O)(=O)C4CC4)c3N2)c1` (centres unmarked) [Example 61, Cyclopropanesulfonic acid [6-chloro-2-(3-dimethylamino-phenyl)-4,4-dimethyl-1,2,3,4-tetrahydro-quinoline-8-carbonyl]-amide] here?
Answer: Its value is 0.1 µM.

Question: How did the “Activity AC1.3 (AMPKp)” value turn out when `CC1(C)CC(c2cccc(N3CCOC3=O)c2)Nc2c(C(=O)NS(C)(=O)=O)cc(Cl)cc21` (centres unmarked) [Example 64, N-{6-chloro-4,4-dimethyl-2-[3-(2-oxo-oxazolidin-3-yl)-phenyl]-1,2,3,4-tetrahydro-quinoline-8-carbonyl}-methanesulfonamide] was run?
Answer: Its value is 0.1 µM.

Question: `CC1(C)CC(c2cccc(C#N)c2)Nc2ccc(C(=O)NS(=O)(=O)C3CC3)cc21` (centres unmarked) [Example 35, Cyclopropanesulfonic acid [2-(3-cyano-phenyl)-4,4-dimethyl-1,2,3,4-tetrahydro-quinoline-6-carbonyl]-amide] was tested. Which “Activity AC1.3 (AMPKp)” value did it give?
Answer: The value was 0.24 µM.

Question: With `CC1(C)CC(c2cccc(NC3(C(=O)O)CC3)c2)Nc2ccc(S(=O)(=O)NC3CCC3)cc21` (centres unmarked) [Example 84, 1-[3-(6-Cyclobutylsulfamoyl-4,4-dimethyl-1,2,3,4-tetrahydro-quinolin-2-yl)-phenylamino]-cyclopropanecarboxylic acid] as the molecule, how does the “Activity AC1.3 (AMPKp)” value read?
Answer: The value was 0.2 µM.

Question: Which “Activity AC1.3 (AMPKp)” value does the source give for `CC1(C)CC(c2ccc(F)c(Cl)c2)Nc2ccc(C(=O)NS(=O)(=O)C3CC3)nc21` (centres unmarked) [Example 78, Cyclopropanesulfonic acid [6-(3-chloro-4-fluoro-phenyl)-8,8-dimethyl-5,6,7,8-tetrahydro-[1,5]naphthyridine-2-carbonyl]-amide] here?
Answer: Its value is 28.9 µM.

Question: With `CN1CCN(c2cccc(C3CC(C)(C)c4cc(C(=O)NS(=O)(=O)C5CC5)ccc4N3)c2)CC1` (centres unmarked) [Example 51, Cyclopropanesulfonic acid {4,4-dimethyl-2-[3-(4-methyl-piperazin-1-yl)-phenyl]-1,2,3,4-tetrahydro-quinoline-6-carbonyl}-amide] as the molecule, how does the “Activity AC1.3 (AMPKp)” value read?
Answer: The value was 0.18 µM.

Question: Which “Activity AC1.3 (AMPKp)” value does the source give for `Cc1ccc(N2CCOC2=O)cc1C1CC(C)(C)c2cc(C(=O)NS(C)(=O)=O)ccc2N1` (centres unmarked) [Example 27, N-{4,4-dimethyl-2-[2-methyl-5-(2-oxo-oxazolidin-3-yl)-phenyl]-1,2,3,4-tetrahydro-quinoline-6-carbonyl}-methanesulfonamide] here?
Answer: The value was 0.01 µM.

Question: With `CC(C)(Nc1cccc(C2CC(C)(C)c3cc(S(=O)(=O)NC4CCC4)ccc3N2)c1)C(=O)O` (centres unmarked) [Example 85, 2-[3-(6-Cyclobutylsulfamoyl-4,4-dimethyl-1,2,3,4-tetrahydro-quinolin-2-yl)-phenylamino]-2-methyl-propionic acid] as the molecule, how does the “Activity AC1.3 (AMPKp)” value read?
Answer: Its value is 0.03 µM.

Question: For `Cc1ccc(N2CCOC2=O)cc1C1CC(C)(C)c2cc(C(=O)NS(=O)(=O)C3CC3)ccc2N1` (centres unmarked) [Example 28, Cyclopropanesulfonic acid {4,4-dimethyl-2-[2-methyl-5-(2-oxo-oxazolidin-3-yl)-phenyl]-1,2,3,4-tetrahydro-quinoline-6-carbonyl}-amide], which “Activity AC1.3 (AMPKp)” value is on record?
Answer: Its value is 0.02 µM.

Question: How did the “Activity AC1.3 (AMPKp)” value turn out when `CC1(C)CC(c2cncc(N3CCOCC3)c2)Nc2ccc(C(=O)NS(=O)(=O)C3CC3)cc21` (centres unmarked) [Example 54, Cyclopropanesulfonic acid [4,4-dimethyl-2-(5-morpholin-4-yl-pyridin-3-yl)-1,2,3,4-tetrahydro-quinoline-6-carbonyl]-amide] was run?
Answer: Its value is 0.03 µM.

Question: With `CC1(C)CC(c2cccc(N3CCCC3)c2)Nc2ccc(C(=O)NS(=O)(=O)C3CC3)cc21` (centres unmarked) [Example 52, Cyclopropanesulfonic acid [4,4-dimethyl-2-(3-pyrrolidin-1-yl-phenyl)-1,2,3,4-tetrahydro-quinoline-6-carbonyl]-amide] as the molecule, how does the “Activity AC1.3 (AMPKp)” value read?
Answer: The value was 0.55 µM.

Question: For `Cc1ccc(N2CCN(c3cncc(C4CC(C)(C)c5cc(C(=O)NS(=O)(=O)C6CC6)ccc5N4)c3)CC2)c(C)c1` (centres unmarked) [Example 50, Cyclopropanesulfonic acid (2-{5-[4-(2,4-dimethyl-phenyl)-piperazin-1-yl]-pyridin-3-yl}-4,4-dimethyl-1,2,3,4-tetrahydro-quinoline-6-carbonyl)-amide], which “Activity AC1.3 (AMPKp)” value is on record?
Answer: The value was 0.16 µM.

Question: `CC1(C)CC(c2cccc(N3CCCC3)c2)Nc2c(C(=O)NS(C)(=O)=O)cc(Cl)cc21` (centres unmarked) [Example 71, N-[6-chloro-4,4-dimethyl-2-(3-pyrrolidin-1-yl-phenyl)-1,2,3,4-tetrahydro-quinoline-8-carbonyl]-methanesulfonamide] was tested. Which “Activity AC1.3 (AMPKp)” value did it give?
Answer: Its value is 0.08 µM.

Question: For `CC1(C)CC(c2cc(N3CCOCC3)ccc2Cl)Nc2ccc(C(=O)NS(=O)(=O)C3CC3)cc21` (centres unmarked) [Example 25, Cyclopropanesulfonic acid [2-(2-chloro-5-morpholin-4-yl-phenyl)-4,4-dimethyl-1,2,3,4-tetrahydro-quinoline-6-carbonyl]-amide], which “Activity AC1.3 (AMPKp)” value is on record?
Answer: Its value is 0.21 µM.

Question: Which “Activity AC1.3 (AMPKp)” value does the source give for `CS(=O)(=O)NC(=O)c1ccc2c(c1)C1(CCCC1)CC(c1cccc(N3CCOCC3)c1)N2` (centres unmarked) [Example 5, N-(methylsulfonyl)-2′-(3-morpholinophenyl)-2′,3′-dihydro-1′H-spiro[cyclopentane-1,4′-quinoline]-6′-carboxamide] here?
Answer: The value was 9 µM.

Question: `CC(C)(Nc1cccc(C2CC(C)(C)c3cc(S(=O)(=O)N4CCOCC4)ccc3N2)c1)C(=O)O` (centres unmarked) [Example 82, 2-{3-[4,4-Dimethyl-6-(morpholine-4-sulfonyl)-1,2,3,4-tetrahydro-quinolin-2-yl]-phenylamino}-2-methyl-propionic acid] was tested. Which “Activity AC1.3 (AMPKp)” value did it give?
Answer: The value was 0.02 µM.

Question: Which “Activity AC1.3 (AMPKp)” value does the source give for `CC1(C)CC(c2cccc(C(N)=O)c2)Nc2ccc(C(=O)NS(C)(=O)=O)cc21` (centres unmarked) [Example 32, 3-(6-Methanesulfonylaminocarbonyl-4,4-dimethyl-1,2,3,4-tetrahydroquinolin-2-yl)-benzamide] here?
Answer: The value was 0.002 µM.

Question: How did the “Activity AC1.3 (AMPKp)” value turn out when `Cc1cc(C(=O)NS(=O)(=O)C2CC2)cc2c1NC(c1cccc(N3CCOCC3)c1)CC2(C)C` (centres unmarked) [Example 66, Cyclopropanesulfonic acid [4,4,8-trimethyl-2-(3-morpholin-4-yl-phenyl)-1,2,3,4-tetrahydro-quinoline-6-carbonyl]-amide] was run?
Answer: The value was 12.8 µM.

Question: `CC1(C)CC(c2cccc(NC3(C(=O)O)CC3)c2)Nc2ccc(S(=O)(=O)N3CCOCC3)cc21` (centres unmarked) [Example 83, 1-{3-[4,4-Dimethyl-6-(morpholine-4-sulfonyl)-1,2,3,4-tetrahydro-quinolin-2-yl]-phenylamino}-cyclopropanecarboxylic acid] was tested. Which “Activity AC1.3 (AMPKp)” value did it give?
Answer: The value was 0.01 µM.

Question: For `CC1(C)CC(c2cccc(N3CCOCC3)c2)Nc2c(C(=O)NS(C)(=O)=O)cc(F)cc21` (centres unmarked) [Example 56, N-[6-fluoro-4,4-dimethyl-2-(3-morpholin-4-yl-phenyl)-1,2,3,4-tetrahydro-quinoline-8-carbonyl]-methanesulfonamide], which “Activity AC1.3 (AMPKp)” value is on record?
Answer: The value was 0.03 µM.

Question: For `CC1(C)CC(c2cccc(N3CCOCC3)c2)Nc2ccc(C(=O)NS(=O)(=O)C3CC3)nc21` (centres unmarked) [Example 79, Cyclopropanesulfonic acid [8,8-dimethyl-6-(3-morpholin-4-yl-phenyl)-5,6,7,8-tetrahydro-[1,5]naphthyridine-2-carbonyl]-amide], which “Activity AC1.3 (AMPKp)” value is on record?
Answer: Its value is 4.46 µM.

Question: Which “Activity AC1.3 (AMPKp)” value does the source give for `CC(C)(Nc1cc(F)cc(C2CC(C)(C)c3cc(S(=O)(=O)NC4CCC4)ccc3N2)c1)C(=O)O` (centres unmarked) [Example 86, 2-[3-(6-Cyclobutylsulfamoyl-4,4-dimethyl-1,2,3,4-tetrahydro-quinolin-2-yl)-5-fluoro-phenylamino]-2-methyl-propionic acid] here?
Answer: The value was 0.003 µM.

Question: With `CC1(C)CC(c2cc(F)cc(NC3(C(=O)O)CC3)c2)Nc2ccc(S(=O)(=O)NC3CCC3)cc21` (centres unmarked) [Example 87, 1-[3-(6-Cyclobutylsulfamoyl-4,4-dimethyl-1,2,3,4-tetrahydro-quinolin-2-yl)-5-fluoro-phenylamino]-cyclopropanecarboxylic acid] as the molecule, how does the “Activity AC1.3 (AMPKp)” value read?
Answer: Its value is 0.002 µM.

Question: `CC1(C)CC(c2cccc(C(N)=O)c2)Nc2ccc(C(=O)NS(=O)(=O)C3CC3)cc21` (centres unmarked) [Example 34, 3-(6-Cyclopropanesulfonylaminocarbonyl-4,4-dimethyl-1,2,3,4-tetrahydro-quinolin-2-yl)-benzamide] was tested. Which “Activity AC1.3 (AMPKp)” value did it give?
Answer: The value was 0.08 µM.

From patent publication US8809369B2, “Tetrahydroquinoline derivatives” (Hoffmann-La Roche Inc., priority 2011, dated 2014)
